Measured values taken from PubChem BioAssay (NCI).
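GI50 marks 50% less growth. TGI denotes the concentration required for complete inhibition of growth.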

Tests used:
Assay in all cases: DTP human tumour cell line panel, 384-well format
[1] = tested on: MCF7 breast
[2] = tested on: K-562 leukemia
[3] = tested on: SK-MEL-2 melanoma
[4] = tested on: SW-620 colon
[5] = tested on: T-47D breast
[6] = tested on: NCI-H322M lung
[7] = tested on: MDA-MB-231 breast
[8] = tested on: UACC-62 melanoma
[9] = tested on: NCI-H226 lung
[10] = tested on: RXF 393 renal
[11] = tested on: OVCAR-8 ovarian
[12] = tested on: ACHN renal
[13] = tested on: LOX IMVI melanoma
[14] = tested on: NCI/ADR-RES ovarian
[15] = tested on: NCI-H522 lung
[16] = tested on: A549 NSCLC
[17] = tested on: OVCAR-5 ovarian
[18] = tested on: NCI-H460 NSCLC
[19] = tested on: NCI-H23 lung
[20] = tested on: RPMI-8226 leukemia
[21] = tested on: BT-549 breast
[22] = tested on: MOLT-4 leukemia
[23] = tested on: 786-0 renal
[24] = tested on: SF-295 CNS
[25] = tested on: IGROV1 ovarian
[26] = tested on: HOP-62 NSCLC
[27] = tested on: HL-60(TB) leukemia
[28] = tested on: DU-145 prostate
[29] = tested on: HCT-116 colon
[30] = tested on: OVCAR-3 ovarian
[31] = tested on: TK-10 renal
[32] = tested on: U251 glioblastoma
[33] = tested on: MDA-MB-435 melanoma
[34] = tested on: SN12C renal
[35] = tested on: KM12 colon
[36] = tested on: CAKI-1 renal
[37] = tested on: MALME-3M melanoma
[38] = tested on: M14 melanoma
[39] = tested on: SR leukemia
[40] = tested on: SK-OV-3 ovarian
[41] = tested on: COLO 205 colon
[42] = tested on: UACC-257 melanoma
[43] = tested on: A498 renal
[44] = tested on: MDA-MB-468 breast
[45] = tested on: SK-MEL-5 melanoma
[46] = tested on: UO-31 renal
[47] = tested on: SK-MEL-28 melanoma
[48] = tested on: CCRF-CEM leukemia
[49] = tested on: HOP-92 NSCLC
[50] = tested on: SF-268 CNS
[51] = tested on: HCT-15 colon
[52] = tested on: HT29 colon
[53] = tested on: SF-539 CNS
[54] = tested on: OVCAR-4 ovarian
[55] = tested on: HCC-2998 colon
[56] = tested on: SNB-19 CNS
[57] = tested on: PC-3 prostate

Q: With `CNC[C@@H](NC(=O)c1ccc(-c2nc([C@H]3CC[C@H](O)[C@@H](F)C3)cnc2N)cc1F)c1cc(F)cc(Br)c1` as the molecule, how does the GI50 [1] read?
A: 18 µM

Q: And the TGI [1]?
A: 31.9 µM

Q: What about the GI50 [2] of the same molecule?
A: 16.8 µM

Q: What about the TGI [2] of the same molecule?
A: 30.5 µM

Q: And the GI50 [3]?
A: 20.5 µM

Q: And the TGI [3]?
A: 34.8 µM

Q: What about the GI50 [4] of the same molecule?
A: 20.6 µM

Q: What about the TGI [4] of the same molecule?
A: 35.1 µM

Q: And the GI50 [5]?
A: 22.5 µM

Q: And the TGI [5]?
A: 37.2 µM

Q: And the GI50 [6]?
A: 18.7 µM

Q: What about the TGI [6] of the same molecule?
A: 33.4 µM

Q: What about the GI50 [7] of the same molecule?
A: 20.1 µM

Q: What about the TGI [7] of the same molecule?
A: 34.4 µM

Q: What about the GI50 [8] of the same molecule?
A: 16.7 µM

Q: What about the TGI [8] of the same molecule?
A: 30.5 µM

Q: What about the GI50 [9] of the same molecule?
A: 18.6 µM

Q: What about the TGI [9] of the same molecule?
A: 33 µM

Q: And the GI50 [10]?
A: 15.3 µM

Q: And the TGI [10]?
A: 28.7 µM

Q: What about the GI50 [11] of the same molecule?
A: 18.9 µM

Q: And the TGI [11]?
A: 33.1 µM

Q: What about the GI50 [12] of the same molecule?
A: 16.9 µM

Q: What about the TGI [12] of the same molecule?
A: 30.6 µM

Q: What about the GI50 [13] of the same molecule?
A: 23.1 µM

Q: And the TGI [13]?
A: 37.7 µM

Q: And the GI50 [14]?
A: 48.5 µM

Q: And the TGI [14]?
A: > 100 µM

Q: What about the GI50 [15] of the same molecule?
A: 18.2 µM

Q: What about the TGI [15] of the same molecule?
A: 32.1 µM

Q: What about the GI50 [16] of the same molecule?
A: 17 µM

Q: And the TGI [16]?
A: 31.1 µM

Q: And the GI50 [17]?
A: 17.5 µM

Q: And the TGI [17]?
A: 33.5 µM

Q: What about the GI50 [18] of the same molecule?
A: 18.8 µM

Q: What about the TGI [18] of the same molecule?
A: 33.2 µM

Q: And the GI50 [19]?
A: 19.4 µM

Q: What about the TGI [19] of the same molecule?
A: 36.9 µM

Q: And the GI50 [20]?
A: 12.4 µM

Q: And the TGI [20]?
A: 24.9 µM

Q: And the GI50 [21]?
A: 13.7 µM

Q: And the TGI [21]?
A: 26.6 µM

Q: And the GI50 [22]?
A: 17.7 µM

Q: What about the TGI [22] of the same molecule?
A: 31.6 µM

Q: And the GI50 [23]?
A: 15 µM

Q: And the TGI [23]?
A: 28.3 µM

Q: What about the GI50 [24] of the same molecule?
A: 18.5 µM

Q: What about the TGI [24] of the same molecule?
A: 32.6 µM

Q: And the GI50 [25]?
A: 17.9 µM

Q: And the TGI [25]?
A: 34.5 µM

Q: And the GI50 [26]?
A: 17.8 µM

Q: And the TGI [26]?
A: 31.7 µM

Q: What about the GI50 [27] of the same molecule?
A: 13.9 µM

Q: And the TGI [27]?
A: 26.9 µM

Q: And the GI50 [28]?
A: 18.5 µM

Q: And the TGI [28]?
A: 32.8 µM

Q: And the GI50 [29]?
A: 16.8 µM

Q: What about the TGI [29] of the same molecule?
A: 30.6 µM

Q: And the GI50 [30]?
A: 18 µM

Q: And the TGI [30]?
A: 32 µM

Q: What about the GI50 [31] of the same molecule?
A: 17 µM

Q: What about the TGI [31] of the same molecule?
A: 31.4 µM

Q: What about the GI50 [32] of the same molecule?
A: 17.5 µM

Q: And the TGI [32]?
A: 31.4 µM

Q: What about the GI50 [33] of the same molecule?
A: 20.3 µM

Q: What about the TGI [33] of the same molecule?
A: 34.7 µM

Q: What about the GI50 [34] of the same molecule?
A: 18.5 µM

Q: And the TGI [34]?
A: 32.5 µM

Q: What about the GI50 [35] of the same molecule?
A: 17.5 µM

Q: What about the TGI [35] of the same molecule?
A: 31.5 µM

Q: And the GI50 [36]?
A: 16.9 µM

Q: And the TGI [36]?
A: 30.9 µM

Q: What about the GI50 [37] of the same molecule?
A: 17.1 µM

Q: What about the TGI [37] of the same molecule?
A: 30.9 µM

Q: And the GI50 [38]?
A: 18.2 µM

Q: What about the TGI [38] of the same molecule?
A: 32.2 µM

Q: And the GI50 [39]?
A: 12.1 µM

Q: And the TGI [39]?
A: 24.5 µM

Q: And the GI50 [40]?
A: 16.9 µM

Q: And the TGI [40]?
A: 30.7 µM

Q: And the GI50 [41]?
A: 16.4 µM

Q: And the TGI [41]?
A: 30.1 µM

Q: And the GI50 [42]?
A: 14.6 µM

Q: And the TGI [42]?
A: 27.8 µM

Q: And the GI50 [43]?
A: 16.6 µM

Q: And the TGI [43]?
A: 30.3 µM

Q: What about the GI50 [44] of the same molecule?
A: 18.3 µM

Q: What about the TGI [44] of the same molecule?
A: 32.2 µM

Q: What about the GI50 [45] of the same molecule?
A: 20.8 µM

Q: What about the TGI [45] of the same molecule?
A: 35.2 µM

Q: And the GI50 [46]?
A: 1.39 µM

Q: What about the TGI [46] of the same molecule?
A: 2.87 µM

Q: And the GI50 [47]?
A: 18.8 µM

Q: What about the TGI [47] of the same molecule?
A: 33 µM

Q: And the GI50 [48]?
A: 16.8 µM

Q: What about the TGI [48] of the same molecule?
A: 30.5 µM

Q: What about the GI50 [49] of the same molecule?
A: 16.8 µM

Q: What about the TGI [49] of the same molecule?
A: 30.6 µM

Q: What about the GI50 [50] of the same molecule?
A: 17.2 µM

Q: And the TGI [50]?
A: 31.1 µM

Q: And the GI50 [51]?
A: 19.4 µM

Q: And the TGI [51]?
A: 33.7 µM

Q: And the GI50 [52]?
A: 16.1 µM

Q: What about the TGI [52] of the same molecule?
A: 29.9 µM

Q: What about the GI50 [53] of the same molecule?
A: 17.2 µM

Q: And the TGI [53]?
A: 31 µM

Q: What about the GI50 [54] of the same molecule?
A: 19.9 µM

Q: And the TGI [54]?
A: 36.1 µM

Q: And the GI50 [55]?
A: 17.2 µM

Q: And the TGI [55]?
A: 31 µM

Q: And the GI50 [56]?
A: 19.1 µM

Q: And the TGI [56]?
A: 33.3 µM

Q: And the GI50 [57]?
A: 17.6 µM

Q: What about the TGI [57] of the same molecule?
A: 31.5 µM
